Test results reported in US9371365B2, “Modified compstatin with peptide backbone and C-terminal modifications” (The Trustees of the University of Pennsylvania, priority 2009, dated 2016).
pIC50: −log10 of the molar value. Like-named read-outs stand apart in the source and are kept apart here.

Key:
[1] = In vivo retention: plasma half-life in baboons by LC-MS/MS; design: species or system baboon (P. Anubis); settings: P. Anubis, baboon (P. Anubis), in vivo, iv, 10 mg
Protocol: A 96-well plate HLB Oasis 10 mg (Waters, Milford, Mass.) was employed for extraction. The SPE material was conditioned by addition of 500 μl of methanol followed by addition of 500 μL of milli-Q water. Sample was prepared by addition of the internal standard followed by 1:1 dilution with 4% H3PO4. After loading the sample, washing was carried out with 500 μL of 5% methanol in 0.1% formic acid. Sample was eluted with 150 μL of 65% methanol in 0.1% formic acid and collected in the collection plate. Solvent was evaporated to dryness in a speed-vac concentrator and reconstituted in 5% acetonitrile in 0.1% formic acid. Samples were kept at −20° C. until analysis.
Baboon plasma samples, 40 μL, were mixed with internal standard and dissolved 1:1 with 40 mM ammonium carbonate buffer. Rapigest detergent was added to a final concentration of 0.1%. Disulfide bridges were reduced in 5 mM DTT for 30 min at 60° C. Alkylation of cysteines was done by addition of iodoacetamide to a final concentration of 15 mM and incubation for 30 min in dark. The sample was enzymatically digested by addition of 16 μL of a 1 μG/μL trypsin solution and incubation overnight at 37° C. After that, the sample pH was lowered with 5% TFA to induce detergent degradation. To avoid nonspecific adsorption of very hydrophobic peptides, acetonitrile was added to 20%. The samples were centrifuged at 6° C. and 14000 rpm for 30 min and the supernatant was diluted with 0.1% formic acid to reduce acetonitrile concentration to 10% prior to filtration with a 10 kDa cut-off microcon centrifugal filter (Millipore, Billerica, Mass.). The filter was washed with 50 μL of 10% ACN in 0.1% formic acid and the collected sample was evaporated to dryness and reconstituted with 10% ACN in 0.1% formic acid.
LC-MS/MS analysis was performed on a SYNAPT HDMS (Waters, Milford, Mass.) controlled by MassLynx 4.1 software (Waters) and equipped with a nanoESI source. Each sample was injected in triplicate. A nanoACQUITY UPLC (Waters) system was used for peptide separation by reversed-phase liquid chromatography. After injection, analytes were trapped for 3 min with 3% mobile phase A (0.1% formic acid in water) at 5 μl/min on a 5 μm Symmetry C18 column (180 μm×20 mm, Waters) and further separated on a 1.7 μm BEH130 C18 column (75 μm×150 mm, Waters). The analytical column temperature was held at 35° C. Peptides were separated at flow rate 0.3 μl/min. The gradient was linear 3-40% B (0.1% formic acid in acetonitrile), either 50 min long, or 60 min for the digested samples. The capillary voltage was 3.2 kV, the cone voltage was 35 V and the source temperature was 100° C. [Glu1]-fibrinogen peptide was used for lock-mass correction with a sampling rate of 30 s. Mass spectra were acquired in positive mode over an m/z range 400-2000 Da at scan rate 0.6 s. The time window used for the MS/MS function was ±3 min of the retention time of the selected peptide. The presence of the analyte was confirmed by MS/MS. Selectivity was studied by analysis of blank samples to determine the presence of any interference coeluting with the analyte.
Juvenile baboons (P. Anubis, Baboon Research Resources, University of Oklahoma) weighing 5-8 kg were used. Three baboons were used for the study; one for each compound. All animals received a bolus dose of peptides (10 mg) by injection through the peripheral vein. […]

[2] = system: classical pathway of complement; test: Inhibition of classical pathway complement activation, ELISA in human serum; type: biochemical; settings: for pIC50: read-out: IC50
Protocol: The ability of the compstatin analogs to inhibit the activation of the classical pathway of complement was assessed by ELISA (Mallik et al., 2005, J Med Chem 48:274-86). In brief, complement was activated in human serum using an antigen-antibody complex in the presence or absence of compstatin analogs, and the deposition of C3 fragments on the plate surface was detected using an HRP-conjugated polyclonal anti-C3 antibody. […] The percent inhibition was plotted against the peptide concentration, and the resulting data set was fitted to the logistic dose-response function using Origin 7.0 software. IC50 values were obtained from the fitted parameters that produced the lowest χ^2 value. Each analog was assayed at least three to seven times.
The ability of the compstatin analogs to inhibit the activation of the classical pathway of complement was assessed by ELISA as described in Example 1. Each conjugate was assayed at least three times.

C3 = target: T1, C3 (Homo sapiens, UniProt P01024); test: ITC analysis of binding to C3
T1 construct: C3 was purified from fresh human plasma; from tissue; host or cells: fresh human plasma (blood bank of the Hospital of the University of Pennsylvania)
Protocol: C3 was purified from fresh human plasma obtained from the blood bank of the Hospital of the University of Pennsylvania. In brief, the plasma was fractionated with 15% (w/v) PEG 3350, and the pellet was resuspended in 20 mM phosphate buffer, pH 7.8, and then subjected to anion-exchange chromatography on a DEAE-HR 40 column (50×5 cm; Millipore Inc., Billerica, Mass.) with the same buffer. Proteins were eluted with 6 L of a linear gradient (15-70%) of 20 mM phosphate buffer, pH 7.8, containing 500 mM NaCl. C3 was further purified on a size-exclusion Superdex 200 26/60 column (Amersham Biosciences) and a Mono S column (Amersham Biosciences) to separate C3 from C3(H2O).
All titrations were performed in PBS (10 mM phosphate buffer with 150 mM NaCl, pH 7.4) at 25° C. using multiple peptide injections of 2-7 μL each. The raw isotherms were corrected for the heats of dilution by subtracting the isotherms representing peptide injections into the buffer. The resulting isotherms were fitted to a single site of sites models using Origin 7.0 software, and the model that produced the lowest χ^2 value was deemed to be appropriate for the respective data set. The Gibbs free energy was calculated as ΔG=ΔH−TΔS. Each experiment was repeated at least twice.

T1 sequence (P01024 23-667 limits assumed): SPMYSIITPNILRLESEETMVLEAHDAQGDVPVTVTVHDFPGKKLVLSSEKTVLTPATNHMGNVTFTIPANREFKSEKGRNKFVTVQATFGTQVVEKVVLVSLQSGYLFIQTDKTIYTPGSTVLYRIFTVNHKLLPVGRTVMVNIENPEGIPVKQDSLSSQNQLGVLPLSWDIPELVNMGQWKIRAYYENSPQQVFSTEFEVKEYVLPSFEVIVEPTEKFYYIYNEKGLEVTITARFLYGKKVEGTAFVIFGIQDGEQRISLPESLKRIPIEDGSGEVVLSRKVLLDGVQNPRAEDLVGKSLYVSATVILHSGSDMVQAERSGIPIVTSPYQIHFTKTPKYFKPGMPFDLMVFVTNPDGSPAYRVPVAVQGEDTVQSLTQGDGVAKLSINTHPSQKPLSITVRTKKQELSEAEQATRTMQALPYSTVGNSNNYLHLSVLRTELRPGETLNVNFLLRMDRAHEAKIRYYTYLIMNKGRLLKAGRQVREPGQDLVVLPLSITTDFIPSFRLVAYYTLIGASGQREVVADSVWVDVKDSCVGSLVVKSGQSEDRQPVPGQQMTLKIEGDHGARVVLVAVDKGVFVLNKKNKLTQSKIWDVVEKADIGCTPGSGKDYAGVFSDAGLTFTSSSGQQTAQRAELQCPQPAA
T1 sequence (P01024 672-1663 limits assumed): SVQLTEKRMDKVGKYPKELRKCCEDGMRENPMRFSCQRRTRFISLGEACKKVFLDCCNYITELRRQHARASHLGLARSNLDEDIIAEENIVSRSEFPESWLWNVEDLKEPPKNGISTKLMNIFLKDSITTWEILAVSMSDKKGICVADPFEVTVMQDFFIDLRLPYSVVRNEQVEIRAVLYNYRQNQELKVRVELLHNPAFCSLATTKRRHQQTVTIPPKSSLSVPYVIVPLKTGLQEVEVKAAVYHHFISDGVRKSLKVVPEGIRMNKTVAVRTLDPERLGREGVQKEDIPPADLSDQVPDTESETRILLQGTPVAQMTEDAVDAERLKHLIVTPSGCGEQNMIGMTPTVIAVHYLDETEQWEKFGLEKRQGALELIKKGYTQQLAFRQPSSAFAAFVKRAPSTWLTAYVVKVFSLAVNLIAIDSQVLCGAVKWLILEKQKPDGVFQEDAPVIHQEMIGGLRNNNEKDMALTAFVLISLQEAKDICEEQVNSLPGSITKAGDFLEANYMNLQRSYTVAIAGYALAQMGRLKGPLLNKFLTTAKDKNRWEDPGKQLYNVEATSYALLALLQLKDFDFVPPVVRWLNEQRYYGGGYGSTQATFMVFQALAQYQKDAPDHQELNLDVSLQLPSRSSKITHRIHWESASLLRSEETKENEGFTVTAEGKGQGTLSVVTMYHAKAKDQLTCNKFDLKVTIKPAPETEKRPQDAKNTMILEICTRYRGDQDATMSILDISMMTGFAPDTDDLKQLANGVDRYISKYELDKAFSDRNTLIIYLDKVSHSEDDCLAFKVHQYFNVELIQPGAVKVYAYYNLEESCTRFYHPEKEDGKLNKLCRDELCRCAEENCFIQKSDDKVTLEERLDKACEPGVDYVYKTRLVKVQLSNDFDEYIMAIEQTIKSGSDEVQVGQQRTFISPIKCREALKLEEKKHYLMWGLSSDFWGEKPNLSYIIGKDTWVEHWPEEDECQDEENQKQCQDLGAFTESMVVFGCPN

CC[C@H](C)[C@H](NC(=O)[C@@H]1CSSC[C@H](NC(=O)[C@@H](NC(C)=O)[C@@H](C)CC)C(=O)N[C@@H](C(C)C)C(=O)N[C@@H](Cc2cn(C)c3ccccc23)C(=O)N[C@@H](CCC(N)=O)C(=O)N[C@@H](CC(=O)O)C(=O)N[C@@H](Cc2c[nH]c3ccccc23)C(=O)N(C)CC(=O)N[C@@H](C)C(=O)N[C@@H](Cc2c[nH]cn2)C(=O)N[C@@H](CCCNC(=N)N)C(=O)N1)C(N)=O [Peptide 17, Ac−Ic[CV(^1−MeW)QDW(^N−MeG)AHRC]I-NH2]
half-life [1]: ~1 h
pIC50 ([2]; Table 1-2): 7.04
IC50 ([2]; classical pathway, human serum, Table 2-1, read-out: IC50 (nM, CP)): 92 nM
pIC50 ([2]; exemplary analogs table): 7.04
rP ([2]; relative potency compared to peptide 14): 2.2
IC50 (fold change) ([2]; relative to peptide 17): 1
ΔH (C3; ITC): -59 kJ/mol
ΔH (text) (C3; ITC): -59 kJ/mol
−TΔS (C3; ITC): 12.1 kJ/mol
−TΔS (text) (C3; ITC): 12.1 kJ/mol
ΔG (C3; ITC, ΔG=ΔH−TΔS): -46.9 kJ/mol
rKD ITC (C3; relative to peptide 14): 2.4
ΔΔG (C3; relative to peptide 14): -2.1 kJ/mol
ΔΔH (C3; relative to peptide 14): 14.6 kJ/mol
−TΔΔS (C3; relative to peptide 14): -17.2 kJ/mol
